These results are taken from patent US10865216B2, “Tricyclic Gyrase inhibitors” (MERCK SHARP & DOHME CORP., priority 2012, dated 2020).

The subject of test [1] is S. aureus ATCC 13709. As to the kind of experiment: MIC, S. aureus ATCC 13709. The format is cell-based. Particulars: for MIC: Staphylococcus aureus, read-out: SA MIC.
Test [2] has as its system E. coli ATCC 25922. As to the kind of experiment: MIC, E. coli ATCC 25922. In kind it is cell-based. As to conditions: for EC8 MIC / MIC: EC8 not defined; for EC MIC: Table 13, L = NH; for MIC: Escherichia coli, read-out: EC8 MIC.
[3] abbreviates: Table 11, compounds wherein L = CH2.
[4] abbreviates: Table 12, Z is C and connected to R4.
The mark [5] stands for this setting: ATCC13709, Table 15, R2 is joined to R4.
[6] abbreviates: ATCC25922, Table 15, R2 is joined to R4.
Where [7] appears, read: ATCC13709, Table 16, new R4 substituents.
The mark [8] stands for this setting: ATCC25922, Table 16, new R4 substituents.

Values after ≈ are worked out from the molar mass of the structure shown. Read-outs that look alike come from different tables or passages of the source. Some results are limits rather than exact numbers.

With `CNc1cc(F)cc2c1[nH]c1nc(Cc3cncnc3)nc(N3C[C@H](N)C4(CC4)C3)c12`, the SA MIC in test [1] (setting [3]) was at most 0.5 µg/mL. For the same compound, the EC8 MIC in test [2] (Table 11, L = CH2) is 1 µg/mL.
Consider `CNc1cc(F)cc2c1[nH]c1nc(Cc3cnc(C)nc3)nc(N3CC[C@@]4(C[C@H]4N)C3)c12`, for which the SA MIC in test [1] (setting [3]) is at most 0.5 µg/mL. The EC8 MIC in test [2] (Table 11, L = CH2) amounted to 2 µg/mL.
In the same order, the values of `CNc1cc(F)cc2c1[nH]c1nc(Cc3cnc(C)nc3)nc(N3CC[C@@]4(C[C@@H]4N)C3)c12` are 1 µg/mL and 8 µg/mL.
As to `CNc1cc(F)cc2c1[nH]c1nc(Cc3cnc(C)nc3)nc(N3CC4CC(N)C4C3)c12` (stereo not drawn), the SA MIC in test [1] (setting [3]) was at most 0.5 µg/mL. In test [2] (Table 11, L = CH2), this compound displayed an EC8 MIC of 1 µg/mL.
On to `CNc1cc(F)cc2c1[nH]c1nc(Cc3cnc(C)nc3)nc(N3CC4(CCC4N)C3)c12` (stereo not drawn), for which the SA MIC in test [1] (setting [3]) was at most 0.5 µg/mL. The same compound registered an EC8 MIC in test [2] (Table 11, L = CH2) of 1 µg/mL.
In test [1] (setting [4]), `CNc1cc(F)c2c3c1[nH]c1nc(Oc4cnc(C)nc4)nc(c13)-c1ccccc1NC2` came in with an SA MIC of at most 0.5 µg/mL. Also, the EC8 MIC in test [2] (setting [4]) was at most 0.5 µg/mL.
`CNc1cc(F)c2c3c1[nH]c1nc(Oc4cnc(C)nc4)nc(c13)N1CCC[C@H]1CNC2` yielded an SA MIC in test [1] (setting [4]) of 16 µg/mL. Besides, the EC8 MIC in test [2] (setting [4]) is over 16 µg/mL.
Compound `CNc1cc(F)c2c3c1[nH]c1nc(Oc4cnc(C)nc4)nc(c13)NC(=N)NC2` came in with an SA MIC in test [1] (setting [4]) of 4 µg/mL. Besides, the EC8 MIC in test [2] (setting [4]) was 8 µg/mL.
Take `CNc1cc(F)c2c3c1[nH]c1nc(Oc4cnc(C)nc4)nc(c13)-c1ccc(Cl)cc1NC2`: the SA MIC in test [1] (setting [4]) is at most 0.5 µg/mL. The compound also yielded an EC8 MIC in test [2] (setting [4]) of 4 µg/mL.
In test [1] (setting [4]), `CNc1cc(F)c2c3c1[nH]c1nc(Oc4cncnc4)nc(c13)-c1ccccc1NC2` came in with an SA MIC of at most 0.5 µg/mL. This compound returned an EC8 MIC in test [2] (setting [4]) of over 16 µg/mL.
On the same counts, the results for `CNc1cc(F)c2c3c1[nH]c1nc(Oc4cnc(N)nc4)nc(c13)-c1ccccc1NC2` are at most 0.5 µg/mL and over 16 µg/mL.
In test [1] (Table 13, L = NH), `CNc1cc(F)cc2c1[nH]c1nc(Nc3cnc(C)nc3)nc(N3C[C@H]4CC3C[C@H]4N)c12` yielded an SA MIC of at most 0.5 µg/mL. The same compound registered an EC MIC in test [2] of at most 0.5 µg/mL.
`CNc1cc(F)cc2c1[nH]c1nc(Nc3cnc4c(c3)nnn4C(C)C)nc(N3C[C@H]4CC3C[C@H]4N)c12` gave an SA MIC in test [1] (Table 13, L = NH) of at most 0.5 µg/mL. Further, the EC MIC in test [2] was found to be 1 µg/mL.
On the same counts, the results for `CNc1cc(F)cc2c1[nH]c1nc(Nc3cccnc3)nc(N3C[C@H]4CC3C[C@H]4N)c12` are at most 0.5 µg/mL and at most 0.5 µg/mL.
In the same order, the values of `CNc1cc(F)cc2c1[nH]c1nc(Nc3cnc4ccnn4c3)nc(N3C[C@H]4CC3C[C@H]4N)c12` are at most 0.5 µg/mL and at most 0.5 µg/mL.
For the compound `CCOC(=O)c1csc(Nc2nc(N3C[C@H]4CC3C[C@H]4N)c3c(n2)[nH]c2c(NC)cc(F)cc23)n1`, the SA MIC in test [1] (Table 13, L = NH) was at most 0.5 µg/mL. Moreover, in test [2], the EC MIC turned out to be 1 µg/mL.
In the same order, the values of `CNc1cc(F)cc2c1[nH]c1nc(Nc3cnc4nccnc4c3)nc(N3C[C@H]4CC3C[C@H]4N)c12` are at most 0.5 µg/mL and 16 µg/mL.
On to `CNc1cc(F)cc2c1[nH]c1nc3nc(c12)NCCCCCCNC(=O)c1cncc(c1)O3`, for which the results for the MIC in test [1] (setting [5]) and in test [2] (setting [6]) were at most 0.5 µg/mL and 1 µg/mL (≈ 2.22 µM), respectively.
Turning to `CNc1cc(F)cc2c1[nH]c1nc3nc(c12)NCCCCCCNC(=O)CSc1ncc(cn1)O3`, the MIC is at most 0.5 µg/mL in test [1] (setting [5]) and over 16 µg/mL in test [2] (setting [6]).
In the same order, the values of `CNc1cc(F)cc2c1[nH]c1nc3nc(c12)NCCCCNC(=O)CSc1ncc(cn1)O3` are at most 0.5 µg/mL and 2 µg/mL (≈ 4.27 µM).
In the case of `CNc1cc(F)cc2c1[nH]c1nc3nc(c12)N[C@@H](CN)COCCCNC(=O)CSc1ncc(cn1)O3`, the MIC in test [1] (setting [5]) worked out at 2 µg/mL (≈ 3.79 µM); in test [2] (setting [6]), 8 µg/mL (≈ 15.2 µM).
In the case of `CNc1cc(F)cc2c1[nH]c1nc(Oc3cnc4ccoc4c3)nc(N3CCC(C)(CN)C3)c12` (stereo not drawn), the values for the MIC in test [1] (setting [7]) and in test [2] (setting [8]) were at most 0.5 µg/mL and 0.5 µg/mL (≈ 1.08 µM), respectively.
With `CNc1cc(F)cc2c1[nH]c1nc(Oc3cnc(C)nc3)nc(N3CCC(C4CNC4)C3)c12` (stereo not drawn), the values for the MIC in test [1] (setting [7]) and in test [2] (setting [8]) were at most 0.5 µg/mL and 8 µg/mL (≈ 17.8 µM), respectively.
In the same order, the values of `CNc1cc(F)cc2c1[nH]c1nc(Oc3cnc(C)nc3)nc(N3CCC(C)(N)C3)c12` (stereo not drawn) are at most 0.5 µg/mL and at most 0.5 µg/mL.
Turning to `CNc1cc(F)cc2c1[nH]c1nc(Oc3cnc(C)nc3)nc(N3CCC(F)(CN)C3)c12` (stereo not drawn), the MIC in test [1] (setting [7]) and in test [2] (setting [8]) was at most 0.5 µg/mL throughout.
`CNc1cc(F)cc2c1[nH]c1nc(Oc3cnc(C)nc3)nc(N3CCCC3=O)c12`: the figures for the MIC in test [1] (setting [7]) and in test [2] (setting [8]) were 1 µg/mL (≈ 2.45 µM) and over 16 µg/mL, respectively.
Consider `CNc1cc(F)cc2c1[nH]c1nc(Oc3cnc(C)nc3)nc(-c3ccc(C4(N)CC4)cc3)c12`, for which the MIC in test [1] (setting [7]) was at most 0.5 µg/mL; in test [2] (setting [8]), 4 µg/mL (≈ 8.78 µM).

The MIC is the lowest concentration found to suppress growth.
